Tested on: ABCA-1 gene
Test: compounds tested and found to elevate cellular expression of the ABCA-1 gene (Examples 1-6; test not named)
Type: cell-based
Description: Activity testing is conducted as described in those patents and patent applications referenced above, and in the Examples below, and by methods apparent to one skilled in the art.

## COC(=O)c1ccc(/N=C(\NC2CCCCC2)N2CCN(Cc3ccc4c(c3)OCO4)CC2)c(O)c1 [methyl 4-{(1E)-1-aza-2-[4-(2H-benzo[d]1,3-dioxolen-5-ylmethyl)piperazinyl]-2-(cyclohexylamino)vinyl}-3-hydroxybenzoate]
  cellular expression of the ABCA-1 gene: elevate cellular expression of the ABCA-1 gene

## O=C(Nc1ccc2c(c1)OCCO2)Nc1ccccc1Br [N-(2H,3H-benzo[e]1,4-dioxin-6-yl)[(2-bromophenyl)amino]carboxamide]
  cellular expression of the ABCA-1 gene: elevate cellular expression of the ABCA-1 gene

## CCc1c(C(=O)N2CCN(C(=O)C(c3ccccc3)c3ccccc3)C(C)C2)cnn1-c1nc(-c2ccc(Cl)cc2)cs1 (centres unmarked) [1-(4-{1-[4-(4-chloro-phenyl)-thiazol-2-yl]-5-ethyl-1H-pyrazole-4-carbonyl}-2-methyl-piperazin-1-yl)-2,2-diphenyl-ethanone]
  cellular expression of the ABCA-1 gene: elevate cellular expression of the ABCA-1 gene

## O=C(Nc1ncc(-c2ccccc2Cl)s1)c1ccco1 [N-[5-(2-chlorophenyl)(1,3-thiazol-2-yl)]-2-furylcarboxamide]
  cellular expression of the ABCA-1 gene: elevate cellular expression of the ABCA-1 gene

## CCOc1ccc(-n2c(C(C)N3CCN(C(=O)Nc4ccc(OC)cc4OC)CC3)nc3ccccc3c2=O)cc1 (centres unmarked) [4-{1-[3-(4-ethoxyphenyl)-4-oxo-3,4-dihydro-quinazolin-2-yl]-ethyl}-piperazine-1-carboxylic acid (2,4-dimethoxy-phenyl)-amide]
  cellular expression of the ABCA-1 gene: elevate cellular expression of the ABCA-1 gene

## CCCCNC(=O)c1cnn(-c2nc(-c3ccc(C)cc3)cs2)c1C [{5-methyl-1-[4-(4-methylphenyl)(1,3-thiazol-2-yl)]pyrazol-4-yl}-N-butylcarboxamide]
  cellular expression of the ABCA-1 gene: elevate cellular expression of the ABCA-1 gene

## CCCCC(=O)Nc1nc2ccccc2s1 [N-benzothiazol-2-ylpentanamide]
  cellular expression of the ABCA-1 gene: elevate cellular expression of the ABCA-1 gene

## CSc1ccc(NC(=O)N(CC(C)C)C(C)c2nc3ccccc3c(=O)n2-c2ccc3ccccc3c2)cc1 (centres unmarked) [N-(2-methylpropyl)[(4-methylthiophenyl)amino]-N-[(3-(2-naphthyl)-4-oxo(3-hydroquinazolin-2-yl))ethyl]carboxamide]
  cellular expression of the ABCA-1 gene: elevate cellular expression of the ABCA-1 gene

## CCCN(C(=O)Nc1ccc(Br)cc1)C(C)c1nc2ccccc2c(=O)n1-c1ccc2ccccc2c1 (centres unmarked) [[(4-bromophenyl)amino]-N-[(3-(2-naphthyl)-4-oxo(3-hydroquinazolin-2-yl))ethyl]-N-propylcarboxamide]
  cellular expression of the ABCA-1 gene: elevate cellular expression of the ABCA-1 gene

## Cc1ccc(-c2ccc3c(N)c(C#N)sc3n2)cc1 [3-amino-6-(4-methylphenyl)thiopheno[2,3-b]pyridine-2-carbonitrile]
  cellular expression of the ABCA-1 gene: elevate cellular expression of the ABCA-1 gene

## N-(2-phenylcyclopropyl)piperidylcarboxamide
  cellular expression of the ABCA-1 gene: elevate cellular expression of the ABCA-1 gene

## O=C1CSC(NC(=O)c2ccc(F)cc2)=N1 [(4-fluorophenyl)-N-(4-oxo(1,3-thiazolin-2-yl))carboxamide]
  cellular expression of the ABCA-1 gene: elevate cellular expression of the ABCA-1 gene

## Cc1ccc(C(=O)Nc2nc(-c3ccccc3)cs2)cc1C [(3,4-dimethylphenyl)-N-(4-phenyl(1,3-thiazol-2-yl))carboxamide]
  cellular expression of the ABCA-1 gene: elevate cellular expression of the ABCA-1 gene

## O=C(Nc1ccc2c(c1)OCCO2)c1ccc([N+](=O)[O-])cc1Cl [N-(2H,3H-benzo[e]1,4-dioxan-6-yl)(2-chloro-4-nitrophenyl)carboxamide]
  cellular expression of the ABCA-1 gene: elevate cellular expression of the ABCA-1 gene

## O=C(NC1=NCCS1)c1ccc(F)c(F)c1 [(3,4-difluorophenyl)-N-(1,3-thiazolin-2-yl)carboxamide]
  cellular expression of the ABCA-1 gene: elevate cellular expression of the ABCA-1 gene

## O=C1CSC(NC(=O)c2cccc(F)c2)=N1 [(3-fluorophenyl)-N-(4-oxo(1,3-thiazolin-2-yl))carboxamide]
  cellular expression of the ABCA-1 gene: elevate cellular expression of the ABCA-1 gene

## N#Cc1ccc(C(=O)NC2=NC(=O)CS2)cc1 [(4-cyanophenyl)-N-(4-oxo(1,3-thiazolin-2-yl))carboxamide]
  cellular expression of the ABCA-1 gene: elevate cellular expression of the ABCA-1 gene

## CCc1c(C(=O)NC23CC4CC(CC(C4)C2)C3)cnn1-c1nc(-c2ccc(C)cc2)cs1 [N-adamantanyl {5-ethyl-1-[4-(4-methylphenyl)(1,3-thiazol-2-yl)]pyrazol-4-yl}carboxamide]
  cellular expression of the ABCA-1 gene: elevate cellular expression of the ABCA-1 gene

## O=c1oc(/C=C/c2ccc(Cl)cc2)nc2ccccc12 [2-[(1E)-2-(4-chlorophenyl)vinyl]benzo[d]1,3-oxazin-4-one]
  cellular expression of the ABCA-1 gene: elevate cellular expression of the ABCA-1 gene

## N#Cc1cccc(C(=O)Nc2nc3ccccc3s2)c1 [N-benzothiazol-2-yl(3-cyanophenyl)carboxamide]
  cellular expression of the ABCA-1 gene: elevate cellular expression of the ABCA-1 gene

## 6-(2-aminophenyl)-3-(methylethylthio)-2H-1,2,4-triazin-5-one
  cellular expression of the ABCA-1 gene: elevate cellular expression of the ABCA-1 gene

## COc1cc(OC)cc(C(=O)NC2=NCCS2)c1 [(3,5-dimethoxyphenyl)-N-(1,3-thiazolin-2-yl)carboxamide]
  cellular expression of the ABCA-1 gene: elevate cellular expression of the ABCA-1 gene

## CCCNC(=O)Nc1nc2ccccc2s1 [N-benzothiazol-2-yl(propylamino)carboxamide]
  cellular expression of the ABCA-1 gene: elevate cellular expression of the ABCA-1 gene

## CC(C)(C)c1ccc(C(=O)N(CCc2ccccn2)Cc2ccccc2[N+](=O)[O-])cc1 [[4-(tert-butyl)phenyl]-N-[(2-nitrophenyl)methyl]-N-(2-(2-pyridyl)ethyl)carboxamide]
  cellular expression of the ABCA-1 gene: elevate cellular expression of the ABCA-1 gene

## CC(c1nc2ccccc2c(=O)n1-c1ccc2ccccc2c1)N(CCN(C)C)C(=O)Nc1ccc(F)cc1F (centres unmarked) [[(2,4-difluorophenyl)amino]-N-[2-(dimethylamino)ethyl]-N-[(3-(2-naphthyl)-4-oxo(3-hydroquinazolin-2-yl))ethyl]carboxamide]
  cellular expression of the ABCA-1 gene: elevate cellular expression of the ABCA-1 gene

## Cc1ccc2nc3c(nc2c1)-c1ccccc1C3=O [7-methylindeno[2,3-b]quinoxalin-1′-one]
  cellular expression of the ABCA-1 gene: elevate cellular expression of the ABCA-1 gene

## COc1cccc(NC(=O)N(CCN(C)C)C(C)c2nc3ccccc3c(=O)n2-c2ccc3ccccc3c2)c1 (centres unmarked) [N-[2-(dimethylamino)ethyl][(3-methoxyphenyl)amino]-N-[(3-(2-naphthyl)-4-oxo(3-hydroquinazolin-2-yl))ethyl]carboxamide]
  cellular expression of the ABCA-1 gene: elevate cellular expression of the ABCA-1 gene

## N-(4-naphthyl(1,3-thiazol-2-yl))[4-(trifluoromethoxy)phenyl]carboxamide
  cellular expression of the ABCA-1 gene: elevate cellular expression of the ABCA-1 gene

## O=C(Nc1ccc(Cl)cc1)c1sc2ccccc2c1Cl [(3-chlorobenzo[b]thiophen-2-yl)-N-(4-chlorophenyl)carboxamide]
  cellular expression of the ABCA-1 gene: elevate cellular expression of the ABCA-1 gene

## CCc1c(C(=O)NCCC(C)C)cnn1-c1nc(-c2ccc(OC)cc2)cs1 [{5-ethyl-1-[4-(4-methoxyphenyl)(1,3-thiazol-2-yl)]pyrazol-4-yl}-N-(3-methylbutyl)carboxamide]
  cellular expression of the ABCA-1 gene: elevate cellular expression of the ABCA-1 gene

## Nc1cc(C(F)(F)F)ccc1N1CCc2ccccc2C1 [2-(2-1,2,3,4-tetrahydroisoquinolyl)-5-(trifluoromethyl)phenylamine]
  cellular expression of the ABCA-1 gene: elevate cellular expression of the ABCA-1 gene

## CCc1ccc(C(=O)NCCN(C(=O)Nc2ccc([N+](=O)[O-])cc2)c2ccccc2)cc1 [(4-ethylphenyl)-N-(2-{[N-(4-nitrophenyl)carbamoyl]phenylamino}ethyl)carboxamide]
  cellular expression of the ABCA-1 gene: elevate cellular expression of the ABCA-1 gene

## Cc1ccc(C(=O)NC2=NC(C(=O)O)CS2)cc1 (centres unmarked) [2-[(4-methylphenyl)carbonylamino]-1,3-thiazoline-4-carboxylic acid]
  cellular expression of the ABCA-1 gene: elevate cellular expression of the ABCA-1 gene

## O=C(Nc1ncc(-c2ccc(F)cc2)s1)C1CC1 [cyclopropyl-N-[5-(4-fluorophenyl)(1,3-thiazol-2-yl)]carboxamide]
  cellular expression of the ABCA-1 gene: elevate cellular expression of the ABCA-1 gene

## CC(C)(C)NC(=O)Nc1nc2ccccc2s1 [N-benzothiazol-2-yl(tert-butylamino)carboxamide]
  cellular expression of the ABCA-1 gene: elevate cellular expression of the ABCA-1 gene

## O=C(Nc1ncc(-c2ccccc2)s1)C1CC1 [cyclopropyl-N-(5-phenyl(1,3-thiazol-2-yl))carboxamide]
  cellular expression of the ABCA-1 gene: elevate cellular expression of the ABCA-1 gene

## O=C1CSC(NC(=O)c2ccccc2)=N1 [phenyl-N-(4-oxo(1,3-thiazolin-2-yl))carboxamide]
  cellular expression of the ABCA-1 gene: elevate cellular expression of the ABCA-1 gene

## CCCCN(Cc1ccc(OCc2ccccc2)cc1)C(=O)Nc1ccc(SC)cc1 [N-butyl[(4-thiomethylphenyl)amino]-N-{[4-(phenylmethoxy)phenyl]methyl}-carboxamide]
  cellular expression of the ABCA-1 gene: elevate cellular expression of the ABCA-1 gene

## Cc1ccc(-c2csc(-n3ncc(C(=O)NCCc4ccccc4)c3C)n2)cc1 [5-methyl-1-(4-p-tolyl-thiazol-2-yl)-1H-pyrazole-4-carboxylic acid phenethyl-amide]
  cellular expression of the ABCA-1 gene: elevate cellular expression of the ABCA-1 gene

## O=C(NC1=NCCS1)c1cccc(F)c1 [(3-fluorophenyl)-N-(1,3-thiazolin-2-yl)carboxamide]
  cellular expression of the ABCA-1 gene: elevate cellular expression of the ABCA-1 gene

## Cc1cccc(NC(=O)c2sc3ccccc3c2Cl)c1 [(3-chlorobenzo[b]thiophen-2-yl)-N-(3-methylphenyl)carboxamide]
  cellular expression of the ABCA-1 gene: elevate cellular expression of the ABCA-1 gene

— patent US6900219B2, “ABCA-1 elevating compounds” (CV Therapeutics, Inc., priority 2002, dated 2005)
